Series [1] has as its system proximal renal tubule cells. Description: Nephrotoxicity test, electron microscopic findings (TEM) of proximal renal tubule. It is filed as in vivo, mice. The procedure:
In order to observe the ultra-structural changes of proximal renal tubule cells, a part of renal cortex of kidney was finely cut in the size of 1 mm^3, pre-fixed with 2% glutaraldehyde-2.5% paraformaldehyde solution, which is prepared with Millonig's phosphate buffer (pH 7.2) at 4° C. for 2-4 hours, and post-fixed with 1% osmium tetroxide for 2 hours, which is diluted with the same buffer solution. Then, after dehydrating the specimen according to ethanol-acetone concentration difference and embeding in Epon 812, it was made to be 2-5 μm thickness in thin section using ultramicrotome and temporarily stained with methylene blue to determine a proper site. Then, it was prepared tobe 60-80 nm thickness of the ultra-thin section, subject to double-staining with uranyl acetate and lead citrate, and observed with TEM (transmission electron microscope; Hitachi-600, Japan).

In the next series the test system is HL60 cells. In words: MTT assay, anti-cancer activity on HL60 cells in vitro. Conditions: HL60 cell. It is filed as cell-based, human. The protocol:
(§1) In order to examine anti-cancer activity of Pt(IV) complexes according to the present invention, MTT, i.e., [3-(4,5-dimethylthiazol-2-yl)-2,5-diphenyltetrazolium bromide] assay was performed on HL60 and L1210 which are leukemic cell of human and mice, respectively.
(§2) MTT assay is a quantitative color analysis based on that mitochondrial dehydrogenase, one of cell enzymes, changes yellow water-soluble MTT into deep-blue water-insoluble formazan, and the amount of the generated formazan is proportioned to active cell numbers.^122-124)
(§3) HL60 and L1210, suspended leukemic cells of humans and mice, respectively are used as cancer cells for determining the anti-cancer activity of the Pt (IV) complex according to the above Examples. They were obtained by cultivating the frozen cells alloted from Korean Cell Line Bank.
(§4) Cells were subject to subculture at the interval of 2-3 days at 37° C. in the presence of 5% CO2 in RPMI 1640 culture medium controlled to contain 1% penicillin-streptomycin (10,000 unit/ml) and 10% FBS, with keeping the cell number between 2×10^5/ml-5×10^5/ml.
(§5) Pt (IV) complexes prepared by the Examples of the present invention were used as pharmaceutical compounds. Among them, a water-soluble compound was used as it was, and a water-insoluble compound was used after dissolving in DMSO or 95% ethanol, adding PBS to be 2 mM concentarion, filtering with 0.2μ syringe filter to be sterile state and performing serial-dilution with a culture medium to control predetermined concentrations. The final concentration of DMSO or 95% ethanol in cell culture medium was controlled to be below 0.1%.
HL60 and L1210 cells were put into 96-well plate in the amount of 10^4/well and then stabilized for a half hour at 37° C. in the presence of 5% CO2. […]
(§6) After cultivating HL60 cell at 37° C. in the presence of 5% CO2 for 72 hours and L1210 for 48 hours, MTT reagent (2 mg/ml) was added 50 μl/well, and an additional cultivation was performed at 37° C. in the presence of 5% CO2 for 4 hours. Then, after centrifuging the resultant at 2000 rpm for 5 minites, the supernatant was removed by 170 μl/well.
(§7) Then, after adding DMSO 150 μl/well, the resultant was laid at 40° C. for 30 minutes and stirred for 3 minutes. Then, absorption test using ELISA reader was performed at 570 nm.
(§8) For calibration, a blank test was performed on the same 96-well plate under the same condition.
(§9) The above-described experiment was performed on more than 3 wells under the same condition with different concentration, and the same experiment was repeated over 3 times.
A general note: Tetrazolium assays rely on reduction of a dye to a coloured formazan, in cell work by metabolically active cells.

A further series has as its system male ICR mice. In words: Nephrotoxicity test, serologic analysis (BUN, creatinine, uric acid) after i.p. injection. The following applies: serum, dose 8x IC50 (cisplatin 7x IC50), average ± SD of 5-6 ICR mice. It is filed as in vivo. Further details: unit not given here. The protocol: In order to serologically analyze nephrotoxicity of various Pt complexes, after injecting each agent intraperitneally, blood was exsanguinated after 6 hours, 1 day, 3 days and 7 days, respectively. Then, serum was seperated f rom the blood to detect the values of BUN (Blood urea nitrogen), creatinine and uric acid.^133)
As an experimental animal, male ICR mice each weighing about 25 g were purchased from Korean Experimental Animal Center. The experimental animals were bred in SPF(Specific Pathogen Free) room in Medical School of HanYang University, and food (purchased from SamYang) and water were supplied unrestrictedly.
The experimental animals were divided into a normal control group, a control group and an experimental group, and the experimental group was again divided into a cisplatin dispensing group, a 7(Ac)Cl treated group, a 7(TF)Cl treated group, a 7(Ac)M treated group, a 7(TF)M treated group and a 7FMN treated group.
Each groups comprised 20-22 mice, and each group was again divided into a 6 hour-treating group, a 1 day-treating group, a 3 day-treating group and a 7 day-treating group, which contains 5-6 mice, respectively.
First, a predetermined amount of agent was dissolved in DMSO or ethanol, and then PBS was added thereto to make the total volume be 6.6 ml. At this time, the content of DMSO or ethanol was controlled to be below 5%.
The agent dissolved in PBS was filtered using 0.2μ syringe filter, sterilized, and injected into intraperitoneally. Then, after 6 hours, 1 day, 3 days and 7 days, exsanguination was performed.
After seperating serum by centrifuging the blood exsanguinated from mice at 4,500 rpm for 15 minutes, the serum was kept at the temperature −20° C. BUN (Blood urea nitrogen), creatinine and uric acid were detected using a biochemical automatic analyzing apparatus (Olympus reply, Japan) and average and standard deviation were calculated from the obtained data.
Control group was dissolved in PBS and injected in dose of 6.6 ml/Kg.

The test system of series [2] is L1210 cells. In words: MTT assay, anti-cancer activity on L1210 cells in vitro. It counts as cell-based, mice. The following applies: L1210 cell. The protocol: as §1, §2, §3, §4, §5
HL60 and L1210 cells were put into 96-well plate in the amount of 10^4/well and then stabilized for a half hour at 37° C. in the presence of 5% CO2.
as §6, §7, §8, §9

Series [3] has as its system L1210 cells. Conditions: literature value (J. Med. Chem. 1994, vol.37, No.10, 1471-1485); cited from earlier work.
The mark [4] stands for this setting: 1 Day after single i.p. injection.
Setting [5] is: 7 Day after single i.p. injection.
Where [6] appears, read: 6 hour after single i.p. injection.
The mark [7] stands for this setting: 3 day after single i.p. injection.

We go through three molecules from patent US6340770B1, “Platinum (IV) complex used as anti-cancer agent and preparing method thereof” (Sook Myung Women's University, priority 1999, dated 2002).

As for `CC(=O)[O][Pt]1([Cl])([Cl])([O]C(C)=O)[NH]CCCC[NH]1` [7(Ac)Cl, trans, cis-diacetato,dichloro-1,4-butanediamine Pt(IV) complex], in series [1] (7(Ac)Cl 6 mg/kg, 7(TF)Cl 5.3 mg/kg (8 times of IC50), cisplatin 6 mg/kg (7 times of IC50), i.p.), the “nephrotoxicity compared with cisplatin (conclusion from serologic and electron microscopic analysis)” value is on record as “weaker toxicity than cisplatin”. In addition, the “ultra-structural changes of proximal renal tubule epithelial cells (TEM)” value in series [1] (one day after i.p. injection) is listed as “cytoplasmic organelle damages”. Moreover, the “anti-cancer activity (IC50) compared with cisplatin, in words” value with HL60 cells was “superior to that of cisplatin”; with L1210 cells [2] it was “superior to cisplatin(CDDP)”. The “BUN after the 1st time injection” value in the series with male ICR mice (setting [4]) is given as 19.4 ± 3.3; in the series with male ICR mice (setting [5]), 22.1 ± 3.4; with male ICR mice (setting [6]), 29.2 ± 1.8; in the series with male ICR mice (setting [7]), 19.2 ± 2.8. The “Uric acid after the 1st time injection” value in the series with male ICR mice (setting [4]) is listed as 1.92 ± 0.4; in the series on male ICR mice (setting [5]) it was 1.74 ± 0.5; in the series on male ICR mice (setting [6]) it was 2.18 ± 1.0; in the series on male ICR mice (setting [7]), 1.88 ± 0.6.

With `O=C([O][Pt]1([Cl])([Cl])([O]C(=O)C(F)(F)F)[NH]CCCC[NH]1)C(F)(F)F` [7(TF)Cl, trans, cis-ditriflioroacetato,dichloro-1,4-butanediamine Pt(IV) complex], the “ultra-structural changes of proximal renal tubule epithelial cells (TEM)” value in series [1] (sacrificed 6 hours after i.p. injection) is given as “seriously damaged findings”; in series [1] (sacrificed 3 days after i.p. injection), “most of cytoplasmic organelles were damaged”. The results for the “anti-cancer activity (IC50) compared with cisplatin, in words” value in the series on HL60 cells and in the series on L1210 cells [2] were “superior to that of cisplatin” and “superior to cisplatin(CDDP)”, respectively. The “BUN after the 1st time injection” value with male ICR mice (setting [4]) is 23.1 ± 3.3; with male ICR mice (setting [5]), 20.7 ± 3.5; in the series on male ICR mice (setting [6]), 28.8 ± 6.4; with male ICR mice (setting [7]), 18.1 ± 2.3. Besides, the “Uric acid after the 1st time injection” value with male ICR mice (setting [4]) turned out to be 1.82 ± 0.5; in the series with male ICR mice (setting [5]), 1.88 ± 0.3; in the series on male ICR mice (setting [6]) it was 2.2 ± 0.9; in the series on male ICR mice (setting [7]), 2.22 ± 0.7.

Consider `[NH2][Pt]1([NH2])[O]C(=O)C2(CCC2)C(=O)[O]1` [carboplatin, cis-diamine(1,1-cyclobutanedicarboxylato)platinum(II)], for which the “IC50 relative to that of cisplatin” value with L1210 cells [3] was “about 10 times”.
